Tests used:
[1] = (§1) The drug is tested on Z-029 corresponding to rat gut metagenome with ENA study accession number: PRJEB37062 and ENA sample accession number: ERS12561828 for biotransformation under anaerobic condition. The drug concentrations were measured over 9 timepoints collected between 0 and 24 hours of incubation by liquid-chromatography-coupled mass spectrometry (LC–MS); details: 2 µM
[2] = as §1, with “Z-008” for “Z-029”, “to” for “to rat gut”, “ERS12561808” for “ERS12561828”; details: 2 µM
[3] = as §1, with “on WLS-027” for “on Z-029”, “to human” for “to rat”, “number: ERS12561744” for “number: ERS12561828”; details: 2 µM
[4] = as §1, with “on WLS-069” for “on Z-029”, “to human” for “to rat”, “number: ERS12561748” for “number: ERS12561828”; details: 2 µM
[5] = human gut metagenome, 24 h, 2 µM
[6] = as §1, with “Z-014” for “Z-029”, “ERS12561814” for “ERS12561828”; details: 2 µM
[7] = human gut metagenome, 24 h, 2 µM; remark: listed apart in the source
[8] = as §1, with “on WLS-220” for “on Z-029”, “to human” for “to rat”, “number: ERS12561769” for “number: ERS12561828”; details: 2 µM
[9] = human gut metagenome, 24 h, 2 µM; remark: listed apart in the source
[10] = as §1, with “on Z-006” for “on Z-029”, “to mouse” for “to rat”, “number: ERS12561806” for “number: ERS12561828”; details: 2 µM
[11] = as §1, with “on WLS-170” for “on Z-029”, “to human” for “to rat”, “number: ERS12561762” for “number: ERS12561828”; details: 2 µM
[12] = as §1, with “on WLS-039” for “on Z-029”, “to human” for “to rat”, “number: ERS12561746” for “number: ERS12561828”; details: 2 µM
[13] = human gut metagenome, 24 h, 2 µM; remark: listed apart in the source
[14] = human gut metagenome, 24 h, 2 µM; remark: listed apart in the source
[15] = as §1, with “on Z-002” for “on Z-029”, “to rabbit” for “to rat”, “number: ERS12561802” for “number: ERS12561828”; details: 2 µM
[16] = as §1, with “on Z-011” for “on Z-029”, “to mouse” for “to rat”, “number: ERS12561811” for “number: ERS12561828”; details: 2 µM
[17] = human gut metagenome, 24 h, 2 µM; remark: listed apart in the source
[18] = human gut metagenome, 24 h, 2 µM; remark: listed apart in the source
[19] = human gut metagenome, 24 h, 2 µM; remark: listed apart in the source
[20] = human gut metagenome, 24 h, 2 µM; remark: listed apart in the source
Note: call rule not given here.

Row | Compound | Bacterial Biotransformation [1] | Bacterial Biotransformation [2] | Bacterial Biotransformation [3] | Bacterial Biotransformation [4] | Bacterial Biotransformation [5] | Bacterial Biotransformation [6] | Bacterial Biotransformation [7] | Bacterial Biotransformation [8] | Bacterial Biotransformation [9] | Bacterial Biotransformation [10] | Bacterial Biotransformation [11] | Bacterial Biotransformation [12] | Bacterial Biotransformation [13] | Bacterial Biotransformation [14] | Bacterial Biotransformation [15] | Bacterial Biotransformation [16] | Bacterial Biotransformation [17] | Bacterial Biotransformation [18] | Bacterial Biotransformation [19] | Bacterial Biotransformation [20]
1 | CC(C)c1nc(CN(C)C(=O)N[C@H](C(=O)N[C@@H](Cc2ccccc2)C[C@H](O)[C@H](Cc2ccccc2)NC(=O)OCc2cncs2)C(C)C)cs1 [RITONAVIR] | Compound NOT metabolized | Compound metabolized | Compound metabolized | Compound metabolized | Compound NOT metabolized | Compound metabolized | Compound metabolized | Compound metabolized | Compound metabolized | Compound metabolized | Compound metabolized | Compound metabolized | Compound metabolized | Compound NOT metabolized | Compound metabolized | Compound metabolized | Compound metabolized | Compound metabolized | Compound metabolized | Compound NOT metabolized
2 | CC(C)NCC(O)c1ccc(NS(C)(=O)=O)cc1 (stereo not given) [SOTALOL] | Compound NOT metabolized | Compound NOT metabolized | Compound NOT metabolized | Compound NOT metabolized | Compound NOT metabolized | Compound NOT metabolized | Compound NOT metabolized | Compound NOT metabolized | Compound NOT metabolized | Compound NOT metabolized | Compound metabolized | Compound NOT metabolized | Compound NOT metabolized | Compound NOT metabolized | Compound NOT metabolized | Compound NOT metabolized | Compound NOT metabolized | Compound NOT metabolized | Compound NOT metabolized | Compound NOT metabolized
3 | CCN1CCCC1CNC(=O)c1cc(S(N)(=O)=O)ccc1OC (stereo not given) [SULPIRIDE] | Compound NOT metabolized | Compound NOT metabolized | Compound metabolized | Compound metabolized | Compound NOT metabolized | Compound NOT metabolized | Compound metabolized | Compound NOT metabolized | Compound metabolized | Compound NOT metabolized | Compound metabolized | Compound NOT metabolized | Compound metabolized | Compound NOT metabolized | Compound metabolized | Compound metabolized | Compound NOT metabolized | Compound metabolized | Compound NOT metabolized | Compound NOT metabolized
4 | CNS(=O)(=O)Cc1ccc2[nH]cc(CCN(C)C)c2c1.O=C(O)CCC(=O)O [SUMATRIPTAN SUCCINATE] | Compound NOT metabolized | Compound NOT metabolized | Compound NOT metabolized | Compound metabolized | Compound NOT metabolized | Compound NOT metabolized | Compound metabolized | Compound metabolized | Compound metabolized | Compound NOT metabolized | Compound NOT metabolized | Compound NOT metabolized | Compound metabolized | Compound NOT metabolized | Compound metabolized | Compound NOT metabolized | Compound NOT metabolized | Compound NOT metabolized | Compound metabolized | Compound NOT metabolized
5 | Nc1c2c(nc3ccccc13)CCCC2 [TACRINE] | Compound NOT metabolized | Compound NOT metabolized | Compound NOT metabolized | Compound metabolized | Compound NOT metabolized | Compound NOT metabolized | Compound metabolized | Compound NOT metabolized | Compound metabolized | Compound NOT metabolized | Compound metabolized | Compound NOT metabolized | Compound metabolized | Compound NOT metabolized | Compound metabolized | Compound NOT metabolized | Compound NOT metabolized | Compound metabolized | Compound metabolized | Compound NOT metabolized
6 | Cc1ccc(S(=O)(=O)NC(=O)NN2CCCCCC2)cc1 [TOLAZAMIDE] | Compound NOT metabolized | Compound NOT metabolized | Compound metabolized | Compound metabolized | Compound NOT metabolized | Compound NOT metabolized | Compound metabolized | Compound metabolized | Compound metabolized | Compound metabolized | Compound metabolized | Compound metabolized | Compound metabolized | Compound NOT metabolized | Compound metabolized | Compound NOT metabolized | Compound metabolized | Compound metabolized | Compound metabolized | Compound metabolized
7 | CCOC(=O)[C@H](CCc1ccccc1)N[C@@H](C)C(=O)N1[C@H](C(=O)O)C[C@H]2CCCC[C@@H]21 [TRANDOLAPRIL] | Compound NOT metabolized | Compound NOT metabolized | Compound metabolized | Compound metabolized | Compound NOT metabolized | Compound NOT metabolized | Compound metabolized | Compound metabolized | Compound metabolized | Compound NOT metabolized | Compound metabolized | Compound metabolized | Compound metabolized | Compound metabolized | Compound metabolized | Compound NOT metabolized | Compound metabolized | Compound metabolized | Compound metabolized | Compound metabolized
8 | CC(CN(C)C)CN1c2ccccc2CCc2ccccc21.O=C(O)/C=C\C(=O)O (stereo not given) [TRIMIPRAMINE MALEATE] | Compound NOT metabolized | Compound NOT metabolized | Compound metabolized | Compound metabolized | Compound NOT metabolized | Compound NOT metabolized | Compound metabolized | Compound metabolized | Compound metabolized | Compound NOT metabolized | Compound metabolized | Compound metabolized | Compound metabolized | Compound NOT metabolized | Compound NOT metabolized | Compound NOT metabolized | Compound NOT metabolized | Compound metabolized | Compound metabolized | Compound NOT metabolized
